Here are results for 21 molecules from patent EP4806891A1 (Kangbaida (Sichuan) Biotechnology Co., Ltd., priority 2023, dated 2025).

The assay has as its target T1, HEK-Blue-hTLR7 cells (Homo sapiens, UniProt Q9NYK1).
T1 construct: expressed in transfected cells; host or cells: HEK-Blue-hTLR7 cells (HEK293-derived reporter line)
T1 sequence (Q9NYK1 27-1049): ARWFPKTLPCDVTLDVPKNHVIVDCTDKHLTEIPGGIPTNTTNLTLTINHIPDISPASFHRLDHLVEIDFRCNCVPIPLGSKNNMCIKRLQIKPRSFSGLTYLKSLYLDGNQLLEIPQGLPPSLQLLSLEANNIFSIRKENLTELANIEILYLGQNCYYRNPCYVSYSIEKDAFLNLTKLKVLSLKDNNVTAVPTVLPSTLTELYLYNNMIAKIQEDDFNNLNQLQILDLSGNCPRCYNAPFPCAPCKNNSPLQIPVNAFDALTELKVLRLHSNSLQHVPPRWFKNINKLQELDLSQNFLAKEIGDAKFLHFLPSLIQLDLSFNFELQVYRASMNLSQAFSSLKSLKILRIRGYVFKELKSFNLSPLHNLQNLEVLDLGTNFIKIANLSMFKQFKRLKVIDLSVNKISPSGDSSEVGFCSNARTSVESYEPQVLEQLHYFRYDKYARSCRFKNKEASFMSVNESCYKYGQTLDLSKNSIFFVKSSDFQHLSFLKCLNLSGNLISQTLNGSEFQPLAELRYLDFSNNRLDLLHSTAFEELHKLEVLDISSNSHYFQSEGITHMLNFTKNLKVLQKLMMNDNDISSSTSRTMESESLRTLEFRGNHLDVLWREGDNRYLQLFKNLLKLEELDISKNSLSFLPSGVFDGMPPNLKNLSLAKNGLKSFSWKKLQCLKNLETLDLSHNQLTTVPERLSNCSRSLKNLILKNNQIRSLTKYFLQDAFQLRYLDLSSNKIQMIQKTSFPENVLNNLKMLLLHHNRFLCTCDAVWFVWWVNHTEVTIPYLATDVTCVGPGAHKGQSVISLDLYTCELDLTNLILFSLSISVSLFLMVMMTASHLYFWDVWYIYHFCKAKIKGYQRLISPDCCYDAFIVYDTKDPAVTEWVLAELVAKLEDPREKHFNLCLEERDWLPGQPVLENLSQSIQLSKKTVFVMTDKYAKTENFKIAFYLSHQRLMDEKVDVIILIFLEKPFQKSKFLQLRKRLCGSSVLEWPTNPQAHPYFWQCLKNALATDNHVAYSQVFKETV
Kind of assay: HEK-Blue-hTLR7 cell inhibition assay. It counts as cell-based. The settings on record: R848 0.8 µM, 16 h, OD 620 nm, read-out: TLR7 IC50. A digest of the protocol: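 Cells were pre-incubated 4 h, then co-treated 16 h at 37 °C with compound (10 doses, 0.5–10000 nM final) plus R848 (0.8 µM for TLR7, 3 µM for TLR8) or ODN2006 (1 µM, TLR9). Reporter OD620 gave inhibition relative to DMSO blank and agonist-only controls; IC50 came from curve fitting.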

Some results are limits rather than exact numbers.

On to `CN1CCC(F)(c2nnc([C@]34CN(c5ccc(C#N)c6ncccc56)C[C@@]3(C(F)(F)F)C4)o2)C1` (stereo partly drawn) [Compound 47, 5-((1S,5R)-1-(5-(3-fluoro-1-methylpyrrolidin-3-yl)-1,3,4-oxadiazol-2-yl)-5-(trifluoromethyl)-3-azabicyclo[3.1.0]hexan-3-yl)quinoline-8-carbonitrile], for which the half-maximal inhibitory concentration (IC50) is less than 100 nM. Then `CN1CC(F)(c2nnc([C@]34CN(c5ccc(C#N)c6ncccc56)C[C@@]3(C(F)(F)F)C4)o2)C1` [Compound 49, 5-((1S,5R)-1-(5-(3-fluoro-1-methylazetidin-3-yl)-1,3,4-oxadiazol-2-yl)-5-(trifluoromethyl)-3-azabicyclo[3.1.0]hexan-3-yl)quinoline-8-carbonitrile], with less than 100 nM.

For the molecule `CN1CCC(c2nnc([C@]34CN(c5ccc(C#N)c6ncccc56)C[C@@]3(C(F)(F)F)C4)o2)C(F)C1` (stereo partly drawn) [Compound 50, 5-((1S,5R)-1-(5-(3-fluoro-1-methylpiperidin-4-yl)-1,3,4-oxadiazol-2-yl)-5-(trifluoromethyl)-3-azabicyclo[3.1.0]hexan-3-yl)quinoline-8-carbonitrile], the concentration for half-maximal inhibition (IC50) is less than 100 nM. As for `CN(C)CCc1nnc([C@]23CN(c4ccc(C#N)c5ncccc45)C[C@@]2(C(F)(F)F)C3)o1` [Compound 51, 5-((1S,5R)-1-(5-(2-(dimethylamino)ethyl)-1,3,4-oxadiazol-2-yl)-5-(trifluoromethyl)-3-azabicyclo[3.1.0]hexan-3-yl)quinoline-8-carbonitrile], the IC50 was less than 100 nM.

For `N#Cc1ccc(N2C[C@]3(c4nnc(C56CCC(N)(CC5)CC6)o4)C[C@]3(C(F)(F)F)C2)c2cccnc12` [Compound 52, 5-((1S,5R)-1-(5-(4-aminobicyclo[2.2.2]octan-1-yl)-1,3,4-oxadiazol-2-yl)-5-(trifluoromethyl)-3-azabicyclo[3.1.0]hexan-3-yl)quinoline-8-carbonitrile], the concentration for half-maximal inhibition (IC50) is less than 100 nM. Regarding `CN(C)C12CCC(c3nnc([C@]45CN(c6ccc(C#N)c7ncccc67)C[C@@]4(C(F)(F)F)C5)o3)(CC1)CC2` [Compound 53, 5-((1S,5R)-1-(5-(4-(dimethylamino)bicyclo[2.2.2]octan-1-yl)-1,3,4-oxadiazol-2-yl)-5-(trifluoromethyl)-3-azabicyclo[3.1.0]hexan-3-yl)quinoline-8-carbonitrile], the IC50 is less than 100 nM.

For the molecule `N#Cc1ccc(N2C[C@]3(c4nnc(C56CCC(NC(=O)[C@@H]7COCCN7)(CC5)CC6)o4)C[C@]3(C(F)(F)F)C2)c2cccnc12` [Compound 54, (S)-N-(4-(5-((1S,5R)-3-(8-cyanoquinolin-5-yl)-5-(trifluoromethyl)-3-azabicyclo[3.1.0]hexan-1-yl)-1,3,4-oxadiazol-2-yl)bicyclo[2.2.2]octan-1-yl)morpholine-3-carboxamide], the IC50 is less than 100 nM. Take `N#Cc1ccc(N2C[C@]3(c4nnc([C@H]5CN(CC(N)=O)CCO5)o4)C[C@]3(C(F)(F)F)C2)c2cccnc12` [Compound 56, 2-((R)-2-(5-((1S,5R)-3-(8-cyanoquinolin-5-yl)-5-(trifluoromethyl)-3-azabicyclo[3.1.0]hexan-1-yl)-1,3,4-oxadiazol-2-yl)morpholino)acetamide]: the IC50 was less than 100 nM. With `N#Cc1ccc(N2C[C@]3(c4nnc(C5(F)CCNCC5)o4)C[C@]3(C(F)(F)F)C2)c2cccnc12` [Compound 60, 5-((1S,5R)-1-(5-(4-fluoropiperidin-4-yl)-1,3,4-oxadiazol-2-yl)-5-(trifluoromethyl)-3-azabicyclo[3.1.0]hexan-3-yl)quinoline-8-carbonitrile] the figure was less than 100 nM.

As for `COc1ccc(N2C[C@]3(c4nnc(C5CCN(C)CC5)o4)C[C@]3(C(F)(F)F)C2)c2cccnc12` [Compound 66, 2-((1S,5R)-3-(8-methoxyquinolin-5-yl)-5-(trifluoromethyl)-3-azabicyclo[3.1.0]hexan-1-yl)-5-(1-methylpiperidin-4-yl)-1,3,4-oxadiazole], the IC50 was less than 100 nM.

With `CN1CCC(n2cc([C@]34CN(c5ccc(C#N)c6ncccc56)C[C@@]3(C(F)(F)F)C4)nn2)CC1` [Compound 71, 5-((1S,5R)-1-(1-(1-methylpiperidin-4-yl)-1H-1,2,3-triazol-4-yl)-5-(trifluoromethyl)-3-azabicyclo[3.1.0]hexan-3-yl)quinoline-8-carbonitrile], the IC50 was less than 100 nM. Then `FC(F)(F)c1ccc(N2C[C@]3(c4nnc(C5CCNCC5)o4)C[C@]3(C(F)(F)F)C2)c2cccnc12` [Compound 75, 2-(piperidin-4-yl)-5-((1S,5R)-5-(trifluoromethyl)-3-(8-(trifluoromethyl)quinolin-5-yl)-3-azabicyclo[3.1.0]hexan-1-yl)-1,3,4-oxadiazole], with less than 100 nM. Take `FC(F)(F)c1ccc(N2C[C@]3(c4nnc(C5CCN(CC6CC6)CC5)o4)C[C@]3(C(F)(F)F)C2)c2cccnc12` [Compound 76, 2-(1-(cyclopropylmethyl)piperidin-4-yl)-5-((1S,5R)-5-(trifluoromethyl)-3-(8-(trifluoromethyl)quinolin-5-yl)-3-azabicyclo[3.1.0]hexan-1-yl)-1,3,4-oxadiazole]: the half-inhibitory concentration (IC50) was less than 100 nM.

`NC(=O)CN1CCC(c2nnc([C@]34CN(c5ccc(C(F)(F)F)c6ncccc56)C[C@@]3(C(F)(F)F)C4)o2)CC1` [Compound 77, 2-(4-(5-((1S,5R)-5-(trifluoromethyl)-3-(8-(trifluoromethyl)quinolin-5-yl)-3-azabicyclo[3.1.0]hexan-1-yl)-1,3,4-oxadiazol-2-yl)piperidin-1-yl)acetamide]: the half-inhibitory concentration (IC50) was less than 100 nM. As to `CN1[C@@H]2CC[C@H]1C[C@H](c1nnc([C@]34CN(c5ccc(C(F)(F)F)c6ncccc56)C[C@@]3(C(F)(F)F)C4)o1)C2` [Compound 79, 2-((1R,3S,5S)-8-methyl-8-azabicyclo[3.2.1]octan-3-yl)-5-((1S,5R)-5-(trifluoromethyl)-3-(8-(trifluoromethyl)quinolin-5-yl)-3-azabicyclo[3.1.0]hexan-1-yl)-1,3,4-oxadiazole], the IC50 was less than 100 nM. As to `N#Cc1ccc(N2C[C@]3(c4nnc(C5CCNCC5)o4)C[C@]3(C(F)(F)F)C2)c2c(F)cnn12` [Compound 80, 3-fluoro-4-((1S,5R)-1-(5-(piperidin-4-yl)-1,3,4-oxadiazol-2-yl)-5-(trifluoromethyl)-3-azabicyclo[3.1.0]hexan-3-yl)pyrazolo[1,5-a]pyridine-7-carbonitrile], the half-maximal inhibitory concentration (IC50) is less than 100 nM.

Take `NC12CCC(c3nnc([C@]45CN(c6ccc(C(F)(F)F)c7ncccc67)C[C@@]4(C(F)(F)F)C5)o3)(CC1)CC2` [Compound 81, 4-(5-((1S,5R)-5-(trifluoromethyl)-3-(8-(trifluoromethyl)quinolin-5-yl)-3-azabicyclo[3.1.0]hexan-1-yl)-1,3,4-oxadiazol-2-yl)bicyclo[2.2.2]octan-1-amine]: the 50% inhibitory concentration (IC50) is less than 100 nM. With `CN1CCC(c2nnc([C@]34CN(c5ccc(C#N)n6ncc(Br)c56)C[C@@]3(C(F)(F)F)C4)o2)CC1` [Compound 83, 3-bromo-4-((1S,5R)-1-(5-(1-methylpiperidin-4-yl)-1,3,4-oxadiazol-2-yl)-5-(trifluoromethyl)-3-azabicyclo[3.1.0]hexan-3-yl)pyrazolo[1,5-a]pyridine-7-carbonitrile] the figure was less than 1000 nM. For `CN1CCC(c2nnc([C@]34CN(c5ccc(C#N)n6ncc(Cl)c56)C[C@@]3(C(F)(F)F)C4)o2)CC1` [Compound 84, 3-chloro-4-((1S,5R)-1-(5-(1-methylpiperidin-4-yl)-1,3,4-oxadiazol-2-yl)-5-(trifluoromethyl)-3-azabicyclo[3.1.0]hexan-3-yl)pyrazolo[1,5-a]pyridine-7-carbonitrile], the IC50 was less than 100 nM.

Consider `CN1CCC(c2nnc([C@]34CN(c5c(Br)cc(C#N)n6ncc(Br)c56)C[C@@]3(C(F)(F)F)C4)o2)CC1` [Compound 85, 3,5-dibromo-4-((1S,5R)-1-(5-(1-methylpiperidin-4-yl)-1,3,4-oxadiazol-2-yl)-5-(trifluoromethyl)-3-azabicyclo[3.1.0]hexan-3-yl)pyrazolo[1,5-a]pyridine-7-carbonitrile], for which the IC50 is greater than 1000 nM. Then `CN1CCC(c2nnc([C@]34CN(c5c(Br)cc(C#N)n6nccc56)C[C@@]3(C(F)(F)F)C4)o2)CC1` [Compound 86, 5-bromo-4-((1S,5R)-1-(5-(1-methylpiperidin-4-yl)-1,3,4-oxadiazol-2-yl)-5-(trifluoromethyl)-3-azabicyclo[3.1.0]hexan-3-yl)pyrazolo[1,5-a]pyridine-7-carbonitrile], with less than 1000 nM.
